Test results from US20120052061A1, “THERAPIES FOR TREATING CANCER USING COMBINATIONS OF COX-2 INHIBITORS AND ANTI-HER2(ERBB2) ANTIBODIES OR COMBINATIONS OF COX-2 INHIBITORS AND HER2(ERBB2) RECEPTOR TYROSINE KINASE INHIBITORS” (Tragara Pharmaceuticals Inc., priority 2007, published 2012).
Like-named read-outs stand apart in the source and are kept apart here.

Legend:
[1] = tested on: human breast cancer cells (SK-BR-3); assay: SK-BR-3 model (Example 8); assay type: in vivo, nude mice; conditions: trastuzumab intravenously
Protocol: Mice are injected subcutaneously in the left paw (1×10^6 tumor cells suspended in 30% Matrigel) and tumor volume is evaluated using a phlethysmometer twice a week for 30-60 days. Implantation of human breast cancer cells (SK-BR-3) into nude mice produces tumors that will reach 0.6-2 ml between 30-50 days. […] The data is expressed as the mean+/−SEM. Student's and Mann-Whitney tests are used to assess differences between means using the InStat software package.
The efficacy of both agents are determined by measuring tumor volume.
B. In a second assay, mice injected with SK-BR-3 cancer cells are then treated with 5-FU on days 12 through 15. […] The efficacy of both agents are determined by measuring tumor volume.

MCF-7 tumor = conditions: for tolerability: mouse, in vivo;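 as to all read-outs here: mouse MCF-7 tumor model, oral gavage dosing started once mean tumor size reached 100-200 mg, endpoint at tumor volume 0.75 g or 90 days, whichever occurred earlier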
Protocol: Upon reaching an average tumor size of 100-200 mg the treatment was begun. Celecoxib and 2-(4-ethoxyphenyl)-4-methyl-1-(4-sulfamoylphenyl)-pyrrole were both formulated as a solution in 1% carboxymethyl cellulose/water and dosed orally by gavage. The endpoint for the study was when tumor volume reached 0.75 gms or 90 days, which ever came first.

[2] = oral pharmacokinetics, all species examined; assay type: in vivo, mice, rats, dogs, and monkeys; conditions: orally administered
Protocol: (§1) Peak plasma concentrations were achieved between 1 and 3 hours after a dose of 5 mg/kg.

[3] = oral pharmacokinetics in rodents; assay type: in vivo, rodents (mice, rats)
Protocol: as §1

[4] = oral pharmacokinetics in dogs; assay type: in vivo
Protocol: as §1

[5] = oral pharmacokinetics in monkeys; assay type: in vivo
Protocol: as §1

[6] = human, in vivo, po
Protocol: as §1

[7] = in vivo
[8] = rat, in vivo
[9] = dog, in vivo
[10] = human, in vivo
BT474 tumor = assay: BT474 model, tumor growth delay study (Example 9); conditions: po, qd to end;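 also: female SCID mice bearing subcutaneous flank BT474 xenografts, oral gavage dosing started at 100-200 mg tumors, caliper volume twice weekly, endpoint tumor 0.75 g or 90 days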
Protocol: Female SCID mice were injected subcutaneously in the flank (1 mm^3 BT474 tumor) and tumor volume was evaluated using a caliper twice a week for up to 90 days, longer for responders. Upon reaching an average tumor size of 100-200 mg the treatment was begun. Celecoxib and 2-(4-ethoxyphenyl)-4-methyl-1-(4-sulfamoylphenyl)-pyrrole were both formulated as a solution in 1% carboxymethyl cellulose/water and dosed orally by gavage. […] The endpoint for the study was when tumor volume reached 0.75 gms or 90 days, which ever came first.

[11] = third assay (C): 5-FU i.p 50 mg/kg on days 14 through 17, COX-2 inhibitor in the diet
[12] = Groups 3 and 9: 30 mg/kg, po, daily
[13] = Groups 4 and 10: 10 mg/kg, po, daily
[14] = Groups 5 and 11: 3 mg/kg, po, daily
[15] = Groups 6 and 12: 1 mg/kg, po, daily
[16] = Groups 2 and 6: single agent 100 mg/kg
[17] = Groups 3 and 7: single agent 30 mg/kg
[18] = Group 5: single agent 300 mg/kg

Cc1onc(-c2ccccc2)c1-c1ccc(S(N)(=O)=O)cc1 [valdecoxib]
reduction of tumor volume [1, 11]: 69%

O=P1(N(CCCl)CCCl)NCCCO1 (centres unmarked) [cyclophosphamide]
Difference from control (MCF-7 tumor; Group 2: 112 mg/kg Q4D×3): 9.2 | Median Total Time to Endpoint (MCF-7 tumor; Group 2: 112 mg/kg Q4D×3): 14.7 days

CCOc1ccc(-c2cc(C)cn2-c2ccc(S(N)(=O)=O)cc2)cc1
absorption [2]: rapidly absorbed | half-life ([3]; mice, rats, plasma, 5 mg/kg, rodents, oral, read-out: elimination half life (t1/2)): 4 to 5 h | Oral availability ([3]; rodent): greatest | Oral availability [4]: 59% | Oral availability [5]: 34% | dose exposure relationship [6]: linear dose exposure relationship | toxicological findings [7]: expected findings related to inhibition of cyclooxygenase | minimum lethal dose [8]: 600 mg/kg | minimum lethal dose [9]: > 2000 mg/kg | Difference from control (MCF-7 tumor; Group 7: 0.3 mg/kg, po, daily): 2.0 | Median Total Time to Endpoint (MCF-7 tumor; Group 7: 0.3 mg/kg, po, daily): 7.5 days | Difference from control (MCF-7 tumor; [12]): 2.5 | Median Total Time to Endpoint (MCF-7 tumor; [12]): 8.0 days | Difference from control (MCF-7 tumor; [13]): 1.8 | Median Total Time to Endpoint (MCF-7 tumor; [13]): 7.3 days | Difference from control (MCF-7 tumor; [14]): 1.3 | Median Total Time to Endpoint (MCF-7 tumor; [14]): 6.8 days | Difference from control (MCF-7 tumor; [15]): 1.6 | Median Total Time to Endpoint (MCF-7 tumor; [15]): 7.1 days | tolerability (MCF-7 tumor; po): well-tolerated | active as a single agent in MCF-7 (MCF-7 tumor; single agent, po, daily): Neither | gastric or duodenal toxicity compared to placebo [10]: no increase in gastric or duodenal toxicity | % tumor growth delay (BT474 tumor; Group 4: single agent 10 mg/kg): −22% | Difference from control (BT474 tumor; Group 4: single agent 10 mg/kg): −8.5 | Median Total Time to Endpoint (BT474 tumor; Group 4: single agent 10 mg/kg): 29.7 days | Regressions: CR (complete regressions) (BT474 tumor; Group 4: single agent 10 mg/kg): 0/0/0 | Regressions: PR (partial regressions) (BT474 tumor; Group 4: single agent 10 mg/kg): 0/0/0 | Regressions: TFS (tumor free survivors) (BT474 tumor; Group 4: single agent 10 mg/kg): 0/0/0 | % tumor growth delay (BT474 tumor; [16]): −14% | Difference from control (BT474 tumor; [16]): −5.5 | Median Total Time to Endpoint (BT474 tumor; [16]): 32.7 days | Regressions: CR (complete regressions) (BT474 tumor; [16]): 0/0/0 | Regressions: PR (partial regressions) (BT474 tumor; [16]): 0/0/0 | Regressions: TFS (tumor free survivors) (BT474 tumor; [16]): 0/0/0 | % tumor growth delay (BT474 tumor; [17]): −16% | Difference from control (BT474 tumor; [17]): −6.2 | Median Total Time to Endpoint (BT474 tumor; [17]): 32.0 days | Regressions: CR (complete regressions) (BT474 tumor; [17]): 0/0/0 | Regressions: PR (partial regressions) (BT474 tumor; [17]): 0/0/0 | Regressions: TFS (tumor free survivors) (BT474 tumor; [17]): 0/0/0

Cc1ccc(-c2cc(C(F)(F)F)nn2-c2ccc(S(N)(=O)=O)cc2)cc1 [celecoxib, reference compound]
Difference from control (MCF-7 tumor; Group 8: 100 mg/kg, po, daily): 1.6 | Median Total Time to Endpoint (MCF-7 tumor; Group 8: 100 mg/kg, po, daily): 7.1 days | Difference from control (MCF-7 tumor; [12]): 2.1 | Median Total Time to Endpoint (MCF-7 tumor; [12]): 7.6 days | Difference from control (MCF-7 tumor; [13]): 2.1 | Median Total Time to Endpoint (MCF-7 tumor; [13]): 7.6 days | Difference from control (MCF-7 tumor; [14]): 1.4 | Median Total Time to Endpoint (MCF-7 tumor; [14]): 6.9 days | Difference from control (MCF-7 tumor; [15]): 1.7 | Median Total Time to Endpoint (MCF-7 tumor; [15]): 7.2 days | tolerability (MCF-7 tumor; po): well-tolerated | % tumor growth delay (BT474 tumor; [18]): −4% | Difference from control (BT474 tumor; [18]): −1.6 | Median Total Time to Endpoint (BT474 tumor; [18]): 36.6 days | Regressions: CR (complete regressions) (BT474 tumor; [18]): 0/0/0 | Regressions: PR (partial regressions) (BT474 tumor; [18]): 0/0/0 | Regressions: TFS (tumor free survivors) (BT474 tumor; [18]): 0/0/0 | % tumor growth delay (BT474 tumor; [16]): −4% | Difference from control (BT474 tumor; [16]): −1.4 | Median Total Time to Endpoint (BT474 tumor; [16]): 36.8 days | Regressions: CR (complete regressions) (BT474 tumor; [16]): 0/0/0 | Regressions: PR (partial regressions) (BT474 tumor; [16]): 0/0/0 | Regressions: TFS (tumor free survivors) (BT474 tumor; [16]): 0/0/0 | Regressions: CR (complete regressions) (BT474 tumor; [17]): 0/0/0 | Regressions: PR (partial regressions) (BT474 tumor; [17]): 0/0/0 | Regressions: TFS (tumor free survivors) (BT474 tumor; [17]): 0/0/0

O=c1[nH]cc(F)c(=O)[nH]1 [5-FU, 5-fluorouracil]
reduction of tumor volume ([1]; second assay (B): 5-FU i.p 50 mg/kg on days 12, 13, 14, and 15, pyrrole in the diet): 61% | reduction of tumor volume [1, 11]: 35%
